Assay results as given in patent publication US20200360405A1, “COMPOSITIONS AND METHODS FOR REDUCING LOCAL AND SYSTEMIC RISKS OF ENVENOMATION” (THE HENRY M. JACKSON FONDATION FOR THE ADVANCEMENT OF …, priority 2017, published 2020).

How the values were obtained:
[1] = biological target: N. kaouthia crude venom PLA2; test: Phospholipase A2 activity assay (EnzChek), N. kaouthia crude venom; format: biochemical, Naja naja kaouthia; settings: for IC50 / PLA2 ≥90% inhibition (concentration), N. kaouthia venom: 0.4 μg venom, 10 minute time point, Example 1; for Effect on N. kaouthia venom PLA2 activity (in words): venom pre-incubated 5-10 minutes with increasing concentrations, Example 2
Experimental: (§1) EnzChek® Phospholipase A 2 assay kits were used according to the manufacturer's recommendations. Briefly, equal volumes of venom solutions were incubated with PLA2 substrate and fluorometric analysis was performed over the course of 20 minutes. Venom activity was determined by creating a standard curve based upon PLA2 from honey bee venom.
(§2) For inhibition experiments, 0.4 μg N. kaouthia or 0.2 μg V. russelli venom was pre-incubated with the specified spreading factor inhibitor(s) for 5-10 minutes before adding the reaction to an equal volume of PLA2 substrate. Fluorometric analysis was performed over 20 minutes, with the 10 minute time point values being used to determine the percent inhibition. Background values were subtracted from all samples, and data was normalized to the venom-only controls. Excitation and emission wavelengths for these experiments were 485(20) nm and 528(20) nm, respectively.
(§3) Data are shown as the mean and standard deviation (SD) of at least duplicate readings. The half maximal inhibitory concentration (IC50) values were determined using GraphPad Prism. Table 1 summarizes the inhibitory activity of various spreading factor inhibitors for N. kaouthia and V. russelli crude venom extracts.
(§4) Snake venom samples were incubated with increasing concentrations of sodium aurothiomalate and/or doxycycline for 5-10 minutes prior to assaying the venom hyaluronidase, gelatinase, and PLA2 activities. As observed in Example 1, sodium aurothiomalate inhibited N. kaouthia and V. russeiii venom hyaluronidase activities, whereas doxycycline inhibited the venom gelatinase and PLA2 activities.

[2] = biological target: V. russelli crude venom PLA2; test: Phospholipase A2 activity assay (EnzChek), V. russelli crude venom; format: biochemical, Vipera russelli; settings: for IC50 / PLA2 ≥90% inhibition (concentration), V. russelli venom: 0.2 μg venom, 10 minute time point, Example 1; for Effect on V. russelli venom PLA2 activity (in words): venom pre-incubated 5-10 minutes with increasing concentrations, Example 2
Experimental: as §1, §2, §3, §4

[3] = biological target: N. kaouthia crude venom hyaluronidase; test: Hyaluronidase activity assay, N. kaouthia crude venom; format: biochemical, Naja naja kaouthia; settings: for Effect on N. kaouthia venom hyaluronidase activity (in words): venom pre-incubated 5-10 minutes with increasing concentrations, Example 2
Experimental: (§5) Hyaluronidase activity was assessed using the Enzymatic Assay of Hyaluronidase (3.2.1.35) protocol from Sigma Aldrich. Briefly, equal volumes of venom were incubated with 0.03% hyaluronic acid solution (0.03% (w/v) hyaluronic acid in 300 mM sodium phosphate (approximately pH 5.35)) for 1.5 hours at 37° C. A reaction aliquot was then added to a 5-fold volume of acidic albumin solution (24 mM sodium acetate, 70 mM acetic acid, 0.1% BSA adjusted to approximately pH 3.75), allowed to stand for 10 minutes, and then absorbance at 600 nm was measured. Data was converted to percent transmission (% T) and adjusted for background signals. Venom hyaluronidase activities were determined by creating a standard curve with bovine testes hyaluronidase.
(§6) For inhibition experiments, 6.75 μg N. kaouthia or 15 μg V. russelli venom was pre-incubated with the specified spreading factor inhibitor(s) for 5-10 minutes before adding an equal volume of the reaction to the hyaluronic acid solution. Data was converted to % T, adjusted for background signals, and then normalized to the venom-only controls.
as §3, §4

[4] = biological target: V. russelli crude venom hyaluronidase; test: Hyaluronidase activity assay, V. russelli crude venom; format: biochemical, Vipera russelli; settings: for Effect on V. russelli venom hyaluronidase activity (in words): venom pre-incubated 5-10 minutes with increasing concentrations, Example 2
Experimental: as §5, §6, §3, §4

[5] = biological target: N. kaouthia crude venom gelatinase; test: Gelatinase activity assay (EnzChek), N. kaouthia crude venom; format: biochemical, Naja naja kaouthia
Experimental: (§7) EnzChek® Gelatinase/Collagenase assay kits were used according to the manufacturer's recommendations. Briefly, equal volumes of venom solutions were incubated with 1.0 mg/mL DQ gelatin and fluorometric analysis was performed for at least three hours, using excitation and emission wavelengths of 485(20) nm and 528(20) nm, respectively. Venom activity was determined by creating a standard curve with Clostridium histolyticum collagenase activity.
(§8) For inhibition experiments, 30 μg N. kaouthia or V. russelli venom was pre-incubated with the specified spreading factor inhibitor(s) for 5-10 minutes before adding an equal volume of the reaction to the 1.0 mg/mL DQ gelatin solution. Fluorometric readings were measured over the course of five hours, with the five hour time points being used to determine the percent inhibition. Data was adjusted for background signals and then normalized to the venom-only controls.
as §3, §4

[6] = biological target: V. russelli crude venom gelatinase; test: Gelatinase activity assay (EnzChek), V. russelli crude venom; format: biochemical, Vipera russelli
Experimental: as §7, §8, §3, §4

[7] = 6.75 μg venom, pre-incubation 5-10 min, Example 1
[8] = 15 μg venom, pre-incubation 5-10 min, Example 1
[9] = 30 μg venom, five hour time point, Example 1
[10] = venom pre-incubated 5-10 minutes with increasing concentrations, Example 2
[11] = asterisk: data obtained according to Example 2, five hour time point

SMILES | IC50 [1] | PLA2 ≥90% inhibition (concentration), N. kaouthia venom [1] | IC50 [2] | PLA2 ≥90% inhibition (concentration), V. russelli venom [2] | Hyaluronidase ≥90% inhibition (concentration), N. kaouthia venom [3, 7] | Effect on N. kaouthia venom hyaluronidase activity (in words) [3] | Hyaluronidase ≥90% inhibition (concentration), V. russelli venom [4, 8] | Effect on V. russelli venom hyaluronidase activity (in words) [4] | Effect on N. kaouthia venom PLA2 activity (in words) [1] | Effect on V. russelli venom PLA2 activity (in words) [2] | also measured
CC1=C(CC/C(C)=C/CCC2=CC[C@H](C3=CC(=O)O[C@H]3O)O[C@H]2O)C(C)(C)CCC1 [Manoalide] | 777 µM | >1000 µM | 31.4 µM | 1000 µM |  |  |  |  |  |  | 
CC(=O)N[C@@H](CS)C(=O)O [N-acetyl-L-cysteine] |  |  |  |  | 4.8 mg/mL | inhibited | 6.0 to 9.6 mg/mL | inhibited | consistently enhanced | consistently enhanced | Hyaluronidase IC50, N. kaouthia venom [3, 7]: 4503 µg/mL; Hyaluronidase IC50, V. russelli venom [4, 8]: ~4989 µg/mL; Gelatinase IC50, N. kaouthia venom [5, 9]: 1850 µg/mL; Gelatinase ≥90% inhibition (concentration), N. kaouthia venom [5, 9]: 1.32 mg/mL; Effect on N. kaouthia venom gelatinase activity (in words) [5, 10]: inhibited; Gelatinase IC50, V. russelli venom [6, 9]: 1870 µg/mL; Gelatinase ≥90% inhibition (concentration), V. russelli venom [6, 9]: 2.31 mg/mL; Effect on V. russelli venom gelatinase activity (in words) [6, 10]: inhibited; Enhancement of PLA2 activities in V. russelli venom ([2]; N-acetyl-L-cysteine alone): 3-4 fold
O=C([O-])CC([S-])C(=O)[O-].[Au+].[Na+].[Na+] (stereo not drawn) [Sodium aurothiomalate, sodium aurothiomalate] |  |  |  |  | 136.30 µM | inhibited | 373.25 µM | inhibited | moderate, but statistically significant increase | moderate, but statistically significant increase | IC50 [3, 7]: 42 µM; IC50 [4, 8]: 147 µM; Gelatinase ≥90% inhibition (concentration), N. kaouthia venom [5, 11]: >208 µM; IC50 [5, 11]: 47 ± 30.4 µM
Cc1ccc(C(=O)Nc2ccc(S(=O)(=O)O)c3cc(S(=O)(=O)O)cc(S(=O)(=O)O)c23)cc1NC(=O)c1cccc(NC(=O)Nc2cccc(C(=O)Nc3cc(C(=O)Nc4ccc(S(=O)(=O)O)c5cc(S(=O)(=O)O)cc(S(=O)(=O)O)c45)ccc3C)c2)c1 [Suramin] | 1520 ± 528 µM | 12500 µM | 2010 µM | 12500 µM |  |  |  |  |  |  | 
